Measurements: patent US20210330606A1, “GLUCOSE CONSUMPTION ACCELERATOR AND GLYCOLYSIS ACCELERATOR” (SHINKO SANGYO Co., Ltd., priority 2018, published 2021)

Key:
[1] = system: Rat-derived fibroblasts (Py-3Y1-S2, subculture strain); test: Glucose consumption of rat-derived fibroblasts (relative value, control = 100); assay type: cell-based
Description: As drugs, 2-amino-1-cyclohexylethanol (Matrix Biochemicals), 2-aminoethanol (Tokyo Chemical Industry Co., Ltd.), 1-amino-2-propanol (Wako Pure Chemical Industries, Ltd.), 2-amino-1-phenylethanol (Tokyo Chemical Industry Co., Ltd.), 1, 3-bis[tris(hydroxymethyl)-methylamino]propane (Tokyo Chemical Industry Co., Ltd.), N-cyclohexylethanolamine (Tokyo Chemical Industry Co., Ltd.), diethanolamine (Wako Pure Chemical Industries, Ltd.), diethylamine (Wako Pure Chemical Industries, Ltd.), dipropylamine (Tokyo Chemical Industry Co., Ltd.), HEPES sodium salt (MP Biomedicals), metoprolol tartrate (Tokyo Chemical Industry Co., Ltd.), morpholine (Wako Pure Chemical Co., Ltd.), octopamine (MP Biomedicals), propylamine (Tokyo Chemical Industry Co., Ltd.), triethylamine (Wako Pure Chemical Co., Ltd.), timolol maleate (Wako Pure Chemical Industries, Ltd.) and tris(hydroxymethyl)aminomethane (Wako Pure Chemical Industries, Ltd.) were used. Each drug was dissolved in distilled water to prepare a sample.
In the culture, DMEM (Nissui Pharmaceutical Co., Ltd.) was used as a culture medium. […] As a control of the drug, the culture was performed in the same manner except that distilled water to which the drug was not added was added to the culture solution instead of the sample.
After the addition of the drug, the glucose concentration of each of the culture solutions was measured immediately after the start of the culture and after the completion of the culture. The glucose concentration was measured using a glucose assay kit (Waco). Then, the glucose concentration after the completion of the culture was divided by the glucose concentration immediately after the start of the culture (5.6 mmol per liter) to calculate the glucose consumption.
The fibroblasts were cultured. […] Streptozotocin, alloxan, and nicotinamide are drugs all known to produce symptoms of diabetes when administered to the body.
Next, samples of streptozotocin, alloxan, and nicotinamide plus 2-amino-1-phenylethanol (2-A-1-P) were prepared in the same manner. The concentration of 2-A-1-P was 1 mg/ml. The relative value of the glucose consumption was calculated in the same manner.
The fibroblasts were cultured.
The concentration of 2-A-1-P was 0.5 mg/ml. The relative value of the glucose consumption was calculated in the same manner.

[2] = system: rat-derived liver cancer cells (Ry121B, subculture line); settings: drug 1 mg/ml, control = 100
[3] = system: Rat-derived fibroblasts (Py-3Y1-S2, subculture strain); test: Lactate concentration in culture solution of fibroblasts (relative value, control = 100); assay type: cell-based; settings: drug 1 mg/ml, control = 100 (FIG. 7A)
Experimental: First, samples of 2-amino-1-cyclohexylethanol and 2-amino-1-phenylethanol were prepared in the same manner as in Example 1. The fibroblasts and the liver cancer cells were cultured under the same conditions as in Examples 1 and 5. […] As a control, the culture was performed in the same manner except that distilled water to which the drug was not added was added to the culture solution instead of the sample.
After the addition of the drug, the culture solution was diluted so that the weight ratio of the culture solution to distilled water was 1:19, and the lactate concentration of the diluted culture solution was measured. The lactate concentration was measured using a lactate assay kit (product name: Lactate Assay Kit-WST, product of Dojindo Laboratories).

NCC(O)c1ccccc1 (stereo not shown) [2-amino-1-phenylethanol]
relative value of glucose consumption ([1]; Example 2, fibroblasts, drug 0.1 mg/ml, control = 100): about 130
relative value of glucose consumption ([1]; Example 2, fibroblasts, drug 0.25 mg/ml, control = 100): about 140
relative value of glucose consumption ([1]; Example 2, fibroblasts, drug 0.5 mg/ml, control = 100): about 160
relative value of glucose consumption ([1]; Example 3, 2-A-1-P 1 mg/ml in addition to alloxan 1 mg/ml): ≥ 100
relative value of glucose consumption ([1]; Example 3, 2-A-1-P 1 mg/ml in addition to nicotinamide 1 mg/ml): ≥ 100
relative value of glucose consumption ([1]; Example 3, 2-A-1-P 1 mg/ml in addition to streptozotocin 1 mg/ml): ≥ 100
relative value of glucose consumption ([1]; Example 4, 2-A-1-P 0.5 mg/ml in addition to V2O5): about 140
relative value of glucose consumption ([1]; Example 4, 2-A-1-P 0.5 mg/ml in addition to concanavalin A 100 μg/ml): about 150
relative value of glucose consumption ([1]; Example 4, 2-A-1-P 0.5 mg/ml in addition to vanadium): about 145
relative value of glucose consumption ([1]; fibroblasts, drug 0.5 mg/ml, 12 to 24 hours, control = 100 (FIG. 1A, 2A)): significantly increased glucose consumption
relative value of glucose consumption ([1]; fibroblasts, drug 1 mg/ml, 12 to 24 hours, control = 100 (FIG. 1B, 2B)): significantly increased glucose consumption
relative value of glucose consumption [2]: about 140
relative value of lactate concentration [3]: about 185
